Where a name gives a salt, the structure may show the parent alone. Read-outs that look alike come from different tables or passages of the source.
How the values were obtained:
Experiment in all cases: AK assay 384-well format, Prestwick library screening
E. cloacae = format: cell-based, Enterobacter cloacae; conditions: 50 μM final drug concentration; for fold induction at 50 µM: Enterobacter cloacae, 3 h
[1] = test system: A. baumannii strain 98-37-09; format: cell-based, Acinetobacter baumannii; conditions: 50 μM final drug concentration; for fold induction at 50 µM: Acinetobacter baumannii, 983709, 3 h
K. pneumoniae = format: cell-based, Klebsiella pneumoniae; conditions: 50 μM final drug concentration; for fold induction at 50 µM: Klebsiella pneumoniae, 3 h
E. coli = format: cell-based, Escherichia coli; conditions: 50 μM final drug concentration; for fold induction at 50 µM: Escherichia coli, 3 h
E. faecium = format: cell-based, Enterococcus faecium; conditions: 50 μM final drug concentration; for fold induction at 50 µM: Enterococcus faecium, 3 h
P. aeruginosa = format: cell-based, Pseudomonas aeruginosa; conditions: 50 μM final drug concentration; for fold induction at 50 µM: Pseudomonas aeruginosa, 3 h
[2] = test system: S. aureus strain USA300-0114; format: cell-based, Staphylococcus aureus; conditions: 50 μM final drug concentration; for fold induction at 50 µM: Staphylococcus aureus, USA300, 3 h
[3] = planktonic E. cloacae, cutoff for positive-scoring molecules 3-fold increase, read-out: AK-based Prestwick Library Screening Results, E. cloacae (increase in extracellular AK activity)
[4] = planktonic A. baumannii, cutoff for positive-scoring molecules 3-fold increase, read-out: AK-based Prestwick Library Screening Results, A. baumannii (increase in extracellular AK activity)
[5] = planktonic K. pneumoniae, cutoff for positive-scoring molecules 3-fold increase, read-out: AK-based Prestwick Library Screening Results, K. pneumoniae (increase in extracellular AK activity)
[6] = planktonic E. coli, cutoff for positive-scoring molecules 3-fold increase, read-out: AK-based Prestwick Library Screening Results, E. coli (increase in extracellular AK activity)
[7] = planktonic E. faecium, cutoff for positive-scoring molecules 3-fold increase, read-out: AK-based Prestwick Library Screening Results, E. faecium (increase in extracellular AK activity)
[8] = planktonic P. aeruginosa, cutoff for positive-scoring molecules 3-fold increase, read-out: AK-based Prestwick Library Screening Results, P. aeruginosa (increase in extracellular AK activity)
[9] = planktonic S. aureus, cutoff for positive-scoring molecules 3-fold increase, read-out: AK-based Prestwick Library Screening Results, S. aureus (increase in extracellular AK activity)
[10] = planktonic E. cloacae, positive cutoff 3-fold increase, read-out: AK-based Prestwick library screening result, E. cloacae (fold increase in extracellular AK activity)
[11] = planktonic A. baumannii, positive cutoff 3-fold increase, read-out: AK-based Prestwick library screening result, A. baumannii (fold increase in extracellular AK activity)
[12] = planktonic K. pneumoniae, positive cutoff 3-fold increase, read-out: AK-based Prestwick library screening result, K. pneumoniae (fold increase in extracellular AK activity)
[13] = planktonic E. faecium, positive cutoff 3-fold increase, read-out: AK-based Prestwick library screening result, E. faecium (fold increase in extracellular AK activity)
[14] = planktonic P. aeruginosa, positive cutoff 3-fold increase, read-out: AK-based Prestwick library screening result, P. aeruginosa (fold increase in extracellular AK activity)
[15] = planktonic S. aureus, positive cutoff 3-fold increase, read-out: AK-based Prestwick library screening result, S. aureus (fold increase in extracellular AK activity)

## O=c1cc(-c2ccc(O)cc2)oc2c([C@@H]3O[C@H](CO)[C@@H](O)[C@H](O)[C@H]3O)c(O)cc(O)c12 [Vitexin]
E. cloacae; planktonic, cutoff for positive-scoring molecules 3-fold increase, read-out: AK-based Prestwick Library Screening Results, E. cloacae (fold increase in extracellular AK activity)
  fold induction at 50 µM: 0.8
[1]; planktonic, cutoff for positive-scoring molecules 3-fold increase, read-out: AK-based Prestwick Library Screening Results, A. baumannii (fold increase in extracellular AK activity)
  fold induction at 50 µM: 0.7
K. pneumoniae; planktonic, cutoff for positive-scoring molecules 3-fold increase, read-out: AK-based Prestwick Library Screening Results, K. pneumoniae (fold increase in extracellular AK activity)
  fold induction at 50 µM: 0.8
E. coli; planktonic, […], read-out: AK-based Prestwick Library Screening Results, E. coli (fold increase in extracellular AK activity)
  fold induction at 50 µM: 0.8
E. faecium; planktonic, cutoff for positive-scoring molecules 3-fold increase, read-out: AK-based Prestwick Library Screening Results, E. faecium (fold increase in extracellular AK activity)
  fold induction at 50 µM: 1
P. aeruginosa; planktonic, cutoff for positive-scoring molecules 3-fold increase, read-out: AK-based Prestwick Library Screening Results, P. aeruginosa (fold increase in extracellular AK activity)
  fold induction at 50 µM: 0.8
[2]; planktonic, cutoff for positive-scoring molecules 3-fold increase, read-out: AK-based Prestwick Library Screening Results, S. aureus (fold increase in extracellular AK activity)
  fold induction at 50 µM: 0.7

## Cc1cccc(C)c1N=C1NCCCS1 [Xylazine]
E. cloacae; planktonic E. cloacae, […], read-out: AK-based Prestwick Library Screening Results, E. cloacae (increase in extracellular AK activity)
  fold induction at 50 µM: 1.4
[1]; planktonic A. baumannii, […], read-out: AK-based Prestwick Library Screening Results, A. baumannii (increase in extracellular AK activity)
  fold induction at 50 µM: 0.9
K. pneumoniae; planktonic K. pneumoniae, […], read-out: AK-based Prestwick Library Screening Results, K. pneumoniae (increase in extracellular AK activity)
  fold induction at 50 µM: 0.7
E. coli; planktonic E. coli, […], read-out: AK-based Prestwick Library Screening Results, E. coli (increase in extracellular AK activity)
  fold induction at 50 µM: 0.8
E. faecium; planktonic E. faecium, […], read-out: AK-based Prestwick Library Screening Results, E. faecium (increase in extracellular AK activity)
  fold induction at 50 µM: 0.9
P. aeruginosa; planktonic P. aeruginosa, […], read-out: AK-based Prestwick Library Screening Results, P. aeruginosa (increase in extracellular AK activity)
  fold induction at 50 µM: 0.9
[2]; planktonic S. aureus, […], read-out: AK-based Prestwick Library Screening Results, S. aureus (increase in extracellular AK activity)
  fold induction at 50 µM: 0.8

## Cc1cc(C(C)(C)C)cc(C)c1CC1=NCCN1 [Xylometazoline hydrochloride]
E. cloacae; planktonic E. cloacae, 384-well, […], read-out: AK-based Prestwick Library Screening Results: E. cloacae (increase in extracellular AK activity)
  fold induction at 50 µM: 1.4
[1]; planktonic A. baumannii, 384-well, […], read-out: AK-based Prestwick Library Screening Results: A. baumannii (increase in extracellular AK activity)
  fold induction at 50 µM: 1.3
K. pneumoniae; planktonic K. pneumoniae, 384-well, cutoff for positive-scoring molecules 3-fold increase, read-out: AK-based Prestwick Library Screening Results: K. pneumoniae (increase in extracellular AK activity)
  fold induction at 50 µM: 0.9
E. coli; planktonic E. coli, 384-well, […], read-out: AK-based Prestwick Library Screening Results: E. coli (increase in extracellular AK activity)
  fold induction at 50 µM: 1.2
E. faecium; planktonic E. faecium, 384-well, cutoff for positive-scoring molecules 3-fold increase, read-out: AK-based Prestwick Library Screening Results: E. faecium (increase in extracellular AK activity)
  fold induction at 50 µM: 1
P. aeruginosa; planktonic P. aeruginosa, 384-well, […], read-out: AK-based Prestwick Library Screening Results: P. aeruginosa (increase in extracellular AK activity)
  fold induction at 50 µM: 1.2
[2]; planktonic S. aureus, 384-well, […], read-out: AK-based Prestwick Library Screening Results: S. aureus (increase in extracellular AK activity)
  fold induction at 50 µM: 1.2

## COC(=O)[C@@H]1[C@H]2C[C@H]3c4[nH]c5ccccc5c4CCN3C[C@@H]2CC[C@@H]1O [Yohimbine hydrochloride]
E. cloacae; [3]
  fold induction at 50 µM: 1
[1]; [4]
  fold induction at 50 µM: 0.8
K. pneumoniae; [5]
  fold induction at 50 µM: 0.8
E. coli; [6]
  fold induction at 50 µM: 0.8
E. faecium; [7]
  fold induction at 50 µM: 0.9
P. aeruginosa; [8]
  fold induction at 50 µM: 0.9
[2]; [9]
  fold induction at 50 µM: 0.6

## O.O=C(O)[C@@H]1[C@H]2C[C@H]3c4[nH]c5ccccc5c4CCN3C[C@@H]2CC[C@@H]1O [Yohimbinic acid monohydrate]
E. cloacae; planktonic E. cloacae, […]
  AK-based Prestwick Library Screening Results, E. cloacae (increase in extracellular AK activity): 0.9
[1]; planktonic A. baumannii, […]
  AK-based Prestwick Library Screening Results, A. baumannii (increase in extracellular AK activity): 0.8
K. pneumoniae; planktonic K. pneumoniae, […]
  AK-based Prestwick Library Screening Results, K. pneumoniae (increase in extracellular AK activity): 0.7
E. coli; planktonic E. coli, […]
  AK-based Prestwick Library Screening Results, E. coli (increase in extracellular AK activity): 0.9
E. faecium; planktonic E. faecium, […]
  AK-based Prestwick Library Screening Results, E. faecium (increase in extracellular AK activity): 0.9
P. aeruginosa; planktonic P. aeruginosa, […]
  AK-based Prestwick Library Screening Results, P. aeruginosa (increase in extracellular AK activity): 0.9
[2]; planktonic S. aureus, […]
  AK-based Prestwick Library Screening Results, S. aureus (increase in extracellular AK activity): 0.7

## Nc1ccn([C@H]2CC[C@@H](CO)O2)c(=O)n1 [Zalcitabine]
E. cloacae; [10]
  fold induction at 50 µM: 1.8
[1]; [11]
  fold induction at 50 µM: 1.2
K. pneumoniae; [12]
  fold induction at 50 µM: 1.1
E. coli; planktonic E. coli, positive cutoff 3-fold increase, read-out: AK-based Prestwick library screening result, E. coli (fold increase in extracellular AK activity)
  fold induction at 50 µM: 1.3
E. faecium; [13]
  fold induction at 50 µM: 1.1
P. aeruginosa; [14]
  fold induction at 50 µM: 1
[2]; [15]
  fold induction at 50 µM: 1.1

## CCCOc1ccccc1-c1nc2nn[nH]c2c(=O)[nH]1 [Zaprinast]
E. cloacae; [3]
  fold induction at 50 µM: 0.8
[1]; [4]
  fold induction at 50 µM: 0.6
K. pneumoniae; [5]
  fold induction at 50 µM: 0.5
E. coli; [6]
  fold induction at 50 µM: 0.7
E. faecium; [7]
  fold induction at 50 µM: 1
P. aeruginosa; [8]
  fold induction at 50 µM: 0.7
[2]; [9]
  fold induction at 50 µM: 0.6

## COc1cc(-c2ccc(=O)[nH]n2)ccc1OC(F)F [Zardaverine]
E. cloacae; [10]
  fold induction at 50 µM: 0.9
[1]; [11]
  fold induction at 50 µM: 0.7
K. pneumoniae; [12]
  fold induction at 50 µM: 0.7
E. coli; planktonic E. coli, […], read-out: AK-based Prestwick library screening result, E. coli (fold increase in extracellular AK activity)
  fold induction at 50 µM: 0.6
E. faecium; [13]
  fold induction at 50 µM: 1
P. aeruginosa; [14]
  fold induction at 50 µM: 0.7
[2]; [15]
  fold induction at 50 µM: 0.6

## Cc1cn([C@H]2C[C@H](N=[N+]=[N-])[C@@H](CO)O2)c(=O)[nH]c1=O [Zidovudine, AZT]
E. cloacae; planktonic E. cloacae, cutoff for positive-scoring molecules 3-fold increase
  AK-based Prestwick Library Screening Results, E. cloacae (increase in extracellular AK activity): 4.2
[1]; planktonic A. baumannii, cutoff for positive-scoring molecules 3-fold increase
  AK-based Prestwick Library Screening Results, A. baumannii (increase in extracellular AK activity): 1.8
K. pneumoniae; planktonic K. pneumoniae, cutoff for positive-scoring molecules 3-fold increase
  AK-based Prestwick Library Screening Results, K. pneumoniae (increase in extracellular AK activity): 1.2
E. coli; planktonic E. coli, cutoff for positive-scoring molecules 3-fold increase
  AK-based Prestwick Library Screening Results, E. coli (increase in extracellular AK activity): 2.1
E. faecium; planktonic E. faecium, cutoff for positive-scoring molecules 3-fold increase
  AK-based Prestwick Library Screening Results, E. faecium (increase in extracellular AK activity): 0.9
P. aeruginosa; planktonic P. aeruginosa, cutoff for positive-scoring molecules 3-fold increase
  AK-based Prestwick Library Screening Results, P. aeruginosa (increase in extracellular AK activity): 0.6
[2]; planktonic S. aureus, cutoff for positive-scoring molecules 3-fold increase
  AK-based Prestwick Library Screening Results, S. aureus (increase in extracellular AK activity): 0.6

From patent US10004701B2, “Methods and compositions for treating infection” (UNIVERSITY OF ROCHESTER, priority 2012, dated 2018)
